# Experimental data taken from the supplement of paper PMC10307832.
# Legend:
# Assay in all cases: relative viability (nuclei count vs DMSO), 5 days (fraction); higher = more cells survive
# DM3189 + AZD7762 = compound: C1CN(CCN1)C2=CC=C(C=C2)C3=CN4C(=C(C=N4)C5=CC=NC6=CC=CC=C56)N=C3 [DM3189] + NC(=O)Nc1cc(-c2cccc(F)c2)sc1C(=O)N[C@H]1CCCNC1 [AZD7762] (partner 0.2 µM)
# Procedure, shortened: (§1)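 Lung cancer cell lines in 1536-well plates were dosed by pin tool the day after seeding, either with one drug alone or with a fixed anchor-drug dose plus five library-drug doses (not always all listed) in √10 steps. After 5 days, cells were fixed and their nuclei stained in one step (final 0.05% Triton X-100, 1% formaldehyde, 1 ug/ml Hoechst), then counted on 4× images. Relative viability is the nuclei count in treated wells divided by that in vehicle wells. Values are medians of duplicate plates.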
# DM3189 + Dasatinib = compound: C1CN(CCN1)C2=CC=C(C=C2)C3=CN4C(=C(C=N4)C5=CC=NC6=CC=CC=C56)N=C3 [DM3189] + Cc1nc(Nc2ncc(C(=O)Nc3c(C)cccc3Cl)s2)cc(N2CCN(CCO)CC2)n1 [Dasatinib] (partner 0.075 µM)
# Procedure, shortened: as §1
# DM3189 + Trametinib = compound: C1CN(CCN1)C2=CC=C(C=C2)C3=CN4C(=C(C=N4)C5=CC=NC6=CC=CC=C56)N=C3 [DM3189] + CC(=O)Nc1cccc(-n2c(=O)n(C3CC3)c(=O)c3c(Nc4ccc(I)cc4F)n(C)c(=O)c(C)c32)c1 [Trametinib] (partner 0.02 µM)
# Procedure, shortened: as §1
# DM3189 + Palbociclib = compound: C1CN(CCN1)C2=CC=C(C=C2)C3=CN4C(=C(C=N4)C5=CC=NC6=CC=CC=C56)N=C3 [DM3189] + CC(=O)c1c(C)c2cnc(Nc3ccc(N4CCNCC4)cn3)nc2n(C2CCCC2)c1=O [Palbociclib] (partner 0.5 µM)
# Procedure, shortened: as §1
# DM3189 + Tozasertib = compound: C1CN(CCN1)C2=CC=C(C=C2)C3=CN4C(=C(C=N4)C5=CC=NC6=CC=CC=C56)N=C3 [DM3189] + Cc1cc(Nc2cc(N3CCN(C)CC3)nc(Sc3ccc(NC(=O)C4CC4)cc3)n2)n[nH]1 [Tozasertib] (partner 0.1 µM)
# Procedure, shortened: as §1
Cell Line,relative viability (DM3189 + AZD7762; first compound 0.08 µM),relative viability (DM3189 + AZD7762; first compound 0.253 µM),relative viability (DM3189 + AZD7762; first compound 0.8 µM),relative viability (DM3189 + AZD7762; first compound 2.53 µM),relative viability (DM3189 + Dasatinib; first compound 0.08 µM),relative viability (DM3189 + Dasatinib; first compound 0.253 µM),relative viability (DM3189 + Dasatinib; first compound 0.8 µM),relative viability (DM3189 + Dasatinib; first compound 2.53 µM),relative viability (DM3189 + Trametinib; first compound 0.08 µM),relative viability (DM3189 + Trametinib; first compound 0.253 µM),relative viability (DM3189 + Trametinib; first compound 0.8 µM),relative viability (DM3189 + Palbociclib; first compound 0.08 µM),relative viability (DM3189 + Palbociclib; first compound 0.253 µM),relative viability (DM3189 + Palbociclib; first compound 0.8 µM),relative viability (DM3189 + Tozasertib; first compound 0.08 µM),relative viability (DM3189 + Tozasertib; first compound 0.253 µM),relative viability (DM3189 + Tozasertib; first compound 0.8 µM),relative viability (DM3189 + Tozasertib; first compound 2.53 µM),relative viability (DM3189 + Trametinib; first compound 2.53 µM),relative viability (DM3189 + Palbociclib; first compound 2.53 µM)
NCI-H1666,1.11,0.812,0.878,0.941,0.884,0.862,0.925,0.715,1.03,0.951,0.863,0.553,0.637,0.656,0.602,0.648,0.737,0.565,,
LOU-NH91,0.825,0.73,0.642,0.683,0.688,0.541,0.51,0.475,0.846,0.793,0.685,0.514,0.53,0.501,0.7,0.696,0.659,0.637,0.765,0.562
ABC-1,0.914,0.679,0.742,1.06,0.607,0.559,0.448,0.423,,,,0.713,0.642,0.498,0.192,0.134,0.165,0.175,,0.553
NCI-H1651,0.536,0.457,0.443,0.444,0.386,0.571,0.58,0.462,0.867,0.793,0.813,0.543,0.554,0.582,0.704,0.722,0.628,0.649,0.937,0.574
